# In paper PMC4535766, “Antiprotozoal Activity Profiling of Approved Drugs: A Starting Point toward Drug Repositioning” (PLoS ONE, 2015):
# Where a name gives a salt, the structure may show the parent alone. Read-outs that look alike come from different tables or passages of the source.
# Columns and labels:
# [1] = tested on: P. falciparum strain K1; assay: In vitro activity against P. falciparum, serial drug dilution assay; conditions: for Activity against P. falciparum (in words): in vitro; for IC50: Plasmodium falciparum; for selectivity ratio: rat
# Description: (§1) Drug stock solutions (10mg/ml) were in DMSO (100%). […] Selectivity index (SI) was calculated as IC50 L6 cells/IC50 parasite.
# [2] = in vitro; conditions: rat
# Description: as §1
# [3] = In vitro cytotoxicity with mouse peritoneal macrophages (Alamar Blue); format: cell-based
# Description: After 96 h of incubation, the plates were inspected under an inverted microscope to assure sterility. […] The IC50 values were calculated by linear regression from the sigmoidal dose inhibition curves using SoftmaxPro software (Molecular Devices Cooperation, Sunnyvale, CA, USA).
# [4] = tested on: T. cruzi, strain Tulahuen C4, intracellular amastigotes; assay: microbe, parasite or virus in culture; conditions: for IC50: Trypanosoma cruzi, TULAHUEN; for selectivity ratio: rat, Selectivity index: IC50 Cytotoxicity L6/ IC50 T. cruzi
# Description: as §1
# [5] = tested on: intracellular amastigotes of L. donovani strain MHOM-ET-67/L82; assay: Activity against Leishmania donovani intracellular amastigotes in mouse peritoneal macrophages; conditions: for IC50: Leishmania donovani, Peritoneal macrophage, in Mus musculus
# Summary of the method: (§2)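 Axenic amastigotes grown at pH 5.4 infected mouse peritoneal macrophages for 4 h before free parasites were washed off. Next day, seven 3-fold drug dilutions (30–0.04 μg/ml) were added for 96 h. Giemsa-stained infected macrophages were counted, burden reduction was taken vs untreated controls, and IC50 came from linear regression.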
# [6] = tested on: L. donovani strain MHOM-ET-67/L82 amastigotes; assay: in vitro; conditions: mouse
# Summary of the method: as §2
# [7] = tested on: T. b. rhodesiense strain STIB 900, trypomastigotes; assay: In vitro activity against T. b. rhodesiense, serial drug dilution assay; conditions: for IC50: Trypanosoma brucei; for Activity against T. b. rhodesiense (in words): in vitro
# Description: as §1
# [8] = Cytotoxicity on macrophages infected with L. donovani; format: cell-based, mouse; conditions: mouse
# Description: After 24 h 1.2 x 10^5 amastigote L. donovani in 100 μl were added. The amastigotes were taken from an axenic culture grown at pH 5.4. Four hours later, the medium containing free amastigote forms was removed and replaced by fresh medium. The next day the medium was replaced by medium with or without a serial drug dilution of seven 3-fold dilution steps covering a range from 30 to 0.04 μg/ml. Parasite growth in the presence of the drug was compared to control wells. After 96 h of incubation, the medium was removed and the slides fixed with methanol for 10 min followed by staining with a 10% Giemsa solution. Infected and non-infected macrophages were counted for the control cultures and those exposed to the serial drug dilutions. The infection rates were determined. The results were expressed as a percentage reduction in parasite burden compared to control wells, and the IC50 was calculated by linear regression analysis.
# [9] = tested on: axenic amastigotes of L. donovani, strain MHOM-ET-67/L82; assay: In vitro activity against L. donovani axenic amastigotes, serial drug dilution assay; format: cell-based, Leishmania donovani
# Description: as §1
# [10] = 96 h, read-out: IC50 L. don. intracell
# [11] = Selectivity index: IC50 Cytotoxicity macrophages/ IC50 L. donovani
# [12] = macrophages infected with L. donovani, read-out: IC50 Cytotox. mac.inf.
# [13] = infected macrophages, read-out: Cytotox. mac.inf. IC50
# [14] = Leishmania donovani, axenic amastigotes, strain MHOM-ET-67/L82, means of two independent assays, read-out: IC50 L. don. axen.
# [15] = axenic amastigotes, strain MHOM-ET-67/L82, means of two independent assays, read-out: IC50 L. don. axen.
# [16] = Selectivity index: IC50 Cytotoxicity L6/ IC50 P. falciparum
# [17] = read-out: L. don. intracell IC50
# [18] = Leishmania donovani, L. donovani axenic amastigotes, read-out: L. don. axen. IC50
# [19] = mouse peritoneal macrophages versus L. donovani amastigotes, Selectivity index: IC50 Cytotoxicity macrophages/ IC50 L. donovani, axenic or intracellular IC50 not specified
Structure (SMILES),IC50 ([2]; IC50 Cytotox. L6) [µM],IC50 at 96 h ([3]; mouse) [µM],"IC50 ([1]; K1, read-out: IC50 P. falc. K1) [µM]",IC50 ([4]; read-out: T. cruzi IC50) [µM],"IC50 [5, 10] [µM]","selectivity ratio at 96 h [6, 11]",IC50 ([7]; read-out: T. b. rhod. IC50) [µM],"IC50 at 96 h [8, 12] [µM]","IC50 [9, 14] [µM]","IC50 [9, 15] [µM]",IC50 ([4]; read-out: IC50 T. cruzi) [µM],IC50 ([7]; read-out: IC50 T. b. rhod.) [µM],also measured
"Clc1ccc(COC(Cn2ccnc2)c2ccc(Cl)cc2Cl)c(Cl)c1 (stereo not shown) [Miconazole (Nitrate salt), Miconazole]",15.4,23.9,–,–,–,–,–,–,–,–,–,–,Activity against P. falciparum (in words) [1]: active
CO[C@H]1/C=C/O[C@@]2(C)Oc3c(C)c(O)c4c(O)c(c(/C=N/N5CCN(C)CC5)c(O)c4c3C2=O)NC(=O)/C(C)=C\C=C\[C@H](C)[C@H](O)[C@@H](C)[C@@H](O)[C@@H](C)[C@H](OC(C)=O)[C@@H]1C [Rifampicin],75.2,–,0.1,> 109,> 36.5,> 24,16.7,> 36.5,< 3,1.53,–,–,"Activity against T. b. rhodesiense (in words) [7]: devoid of antitrypanosomal activity; IC50 at 96 h [8, 13]: > 36.5 µM"
"Clc1ccc(COC(Cn2ccnc2)c2ccc(Cl)cc2Cl)cc1 (stereo not shown) [Econazole (Nitrate salt), Econazole]",15.6,22.8,–,–,–,–,–,–,–,–,–,–,Activity against P. falciparum (in words) [1]: active
Clc1ccc(C(Cn2ccnc2)OCc2ccsc2Cl)c(Cl)c1 (stereo not shown) [Tioconazole],19.5,51.1,0.63,–,13.1,–,–,–,9.26,–,0.064,29.9,"Activity against P. falciparum (in words) [1]: active; selectivity ratio [1, 16]: 31; Activity against L. donovani intracellular amastigotes (in words) [5]: active with low selectivity"
C[C@@H]1[C@H](O)[C@@H](C)/C=C/C=C/C=C/C=C/C=C/C=C/C=C/[C@H](O[C@@H]2O[C@H](C)[C@@H](O)[C@H](N)[C@@H]2O)C[C@@H]2O[C@](O)(C[C@@H](O)C[C@@H](O)[C@H](O)CC[C@@H](O)C[C@@H](O)CC(=O)O[C@H]1C)C[C@H](O)[C@H]2C(=O)O [Amphotericin B],–,22.4,0.8,–,0.31,–,–,32.4,0.34,–,56.7,0.76,selectivity ratio [1]: 13; IC50 [2]: 10.3 µM; selectivity ratio at 96 h [6]: 95; selectivity ratio ([7]; rat): 14
CCN(CC)CCCCCCNc1cc(OC)cc2c(C)ccnc12 [Sitamaquine],–,21.4,0.08,22,–,–,7.39,–,–,–,–,–,"selectivity ratio [1, 16]: 404; IC50 ([2]; L6 cells, IC50 Cytotox. L6, L6 cells, means of two independent assays): 32.3 µM; Activity against L. donovani intracellular amastigotes (in words) [5]: moderate activity; IC50 [5, 17]: 19.5 µM; IC50 at 96 h ([8]; mouse peritoneal macrophages infected with L. donovani, infected macrophages, read-out: Cytotox. mac.inf. IC50): > 29.1 µM; Activity against L. donovani axenic amastigotes (in words) [9]: moderate activity; IC50 [9, 18]: 13.7 µM"
Clc1ccccc1C(c1ccccc1)(c1ccccc1)n1ccnc1 [Clotrimazole],2.99,32.5,–,–,–,–,–,–,–,–,–,–,Activity against P. falciparum (in words) [1]: active; Activity against L. donovani intracellular amastigotes (in words) [5]: active with low selectivity
COc1cc(NC(C)CCCN)c2ncccc2c1 (stereo not shown) [Primaquine],–,–,–,17.9,–,–,4.78,–,–,–,–,–,"IC50 [2]: 43.2 µM; IC50 [5, 17]: 28.2 µM; IC50 at 96 h ([3]; peritoneal mouse macrophages, read-out: Cytotox. PMM IC50): 39.7 µM; IC50 at 96 h [8, 13]: > 38.6 µM; IC50 [9, 18]: 48.6 µM"
N=C(N)c1ccc(OCCCCCOc2ccc(C(=N)N)cc2)cc1 [Pentamidine],8.87,7.78,–,–,2.63,–,–,> 29.4,19.8,–,4.44,0.01,Activity against T. b. rhodesiense (in words) [7]: active; selectivity ratio ([7]; rat): 887
Cc1c(C)c2c(c(C)c1O)CCC(C)(COc1ccc(CC3SC(=O)NC3=O)cc1)O2 (stereo not shown) [Troglitazone],–,–,–,32.6,> 67.9,–,59.3,> 68,4.26,–,–,–,"IC50 ([1]; K1, read-out: P. falc. IC50): 7.27 µM; IC50 ([2]; Cytotox. L6 IC50): 80.6 µM; selectivity ratio at 96 h [6, 19]: > 16; IC50 at 96 h [8, 13]: > 67.9 µM"
C[C@H]1[C@H](OC(=O)CCC(=O)O)O[C@@H]2O[C@@]3(C)CC[C@H]4[C@H](C)CC[C@@H]1[C@@]24OO3 [Artesunate],0.78,–,0.003,–,> 7.8,> 22,–,> 7.8,–,0.35,8.97,16.8,"selectivity ratio [1, 16]: 260; IC50 ([9]; axenic amastigotes, strain MHOM-ET-67/L82, means of two independent assays, listed as artesunate, read-out: IC50 L. don. axen.): < 3 µM"
Cc1cccc(N(C)C(=S)Oc2ccc3ccccc3c2)c1 [Tolnaftate],–,–,–,20,50.1,> 23,69.3,> 97.6,4.33,–,–,–,"IC50 ([1]; K1, read-out: P. falc. IC50): 19 µM; IC50 ([2]; Cytotox. L6 IC50): 84.6 µM; IC50 at 96 h [8, 13]: > 97.6 µM"
"CO[C@H]1/C=C/O[C@@]2(C)Oc3c(C)c(O)c4c(O)c(cc(O)c4c3C2=O)NC(=O)/C(C)=C\C=C\[C@H](C)[C@H](O)[C@@H](C)[C@@H](O)[C@@H](C)[C@H](OC(C)=O)[C@@H]1C [Rifamycin SV (Sodium salt), Rifamycin SV]",15.7,–,0.55,50,> 13.9,–,–,41.6,< 3,1.5,–,0.99,"selectivity ratio [1, 16]: 29; selectivity ratio at 96 h [6, 19]: 28; selectivity ratio ([7]; rat, L6 cells versus T. b. rhodesiense STIB 900 trypomastigotes): 16"
CC(C)/N=c1\cc2n(-c3ccc(Cl)cc3)c3ccccc3nc-2cc1Nc1ccc(Cl)cc1 [Clofazimine],–,10.7,–,38.2,0.95,~10,7.63,6.34,22.4,–,–,–,"IC50 ([1]; K1, read-out: P. falc. IC50): 4.1 µM; IC50 ([2]; Cytotox. L6 IC50): 9.97 µM"
O=C(N/N=C/c1ccc([N+](=O)[O-])o1)c1ccc(O)cc1 [Nifuroxazide],12.3,–,7.82,–,> 10.9,13,–,36.2,< 3,2.83,0.23,0.03,selectivity ratio [4]: 54; selectivity ratio ([7]; rat): 410
O=C1CN(/N=C/c2ccc([N+](=O)[O-])o2)C(=O)N1 [Nitrofurantoine],90.3,–,–,–,> 41.8,59,–,125,< 3,2.12,4.35,0.5,"selectivity ratio [4]: 21; Selectivity index: IC50 Cytotoxicity L6/ IC50 T. b. rhodesiense ([7]; rat): 181; selectivity ratio ([7]; rat, Selectivity index: IC50 Cytotoxicity L6/ IC50 T. b. rhodesiense): 180"
